Test results published in patent US12172990B2 (Constellation Pharmaceuticals, Inc., priority 2018, dated 2024).

How the values were obtained:
[1] = molecular target: human TREX2 (residues M44-A279) (Homo sapiens (Human), UniProt Q9BQ50); test: TREX2 Biochemical Assay (fluorescence assay measuring degradation of dsDNA substrate); conditions: 2.5 nM TREX2, 60 nM dsDNA substrate, 25 minutes at room temperature
Description: Degradation of the dsDNA liberates free fluorophore to produce a fluorescent signal. Specifically, 7.5 μL of N-terminally His-Tev tagged human TREX2 (residues M44-A279, expressed in E. coli and purified in house) in reaction buffer (50 mM Tris (pH 7.4), 150 mM NaCl, 2 mM DTT, 0.1 mg/mL BSA, 0.01% (v/v) Tween-20 and 100 mM MgCl2) was added to a 384-well Black ProxiPlate Plus (Perkin Elmer) which already contained compound (150 nL) at varying concentrations as a 10 point dose-response in DMSO. To this was added 7.5 μL of dsDNA substrate (Strand A: 5′ TEX615/GCT AGG CAG 3′; Strand B: 5′ CTG CCT AGC/IAbRQSp (IDT)) in reaction buffer. Final concentrations were 2.5 nM TREX2, 60 nM dsDNA substrate in reaction buffer with 1.0% DMSO (v/v). After 25 minutes at room temperature, reactions were quenched by the addition of 5 μL of stop buffer (same as reaction buffer plus 200 mM EDTA). Final concentrations in the quenched reaction mixture were […] TREX2, 45 nM DNA and 50 mM EDTA in a volume of 20 μL. After a 5-minute incubation at room temperature, plates were read in a laser sourced Envision (Perkin-Elmer), measuring fluorescence at 615 nm following excitation w/570 nm light. IC50 values were calculated by comparing the measured fluorescence at 615 nm ratio relative to control wells pre-quenched w/stop buffer (100% inhibition) and no inhibitor (0% inhibition) controls as using non-linear least square four parameter fits and either Genedata or GraphPad Prism (GraphPad Software, Inc.).

[2] = molecular target: full length human TREX1 (Homo sapiens (Human), UniProt Q9NSU2); test: TREX1 Biochemical Assay (fluorescence assay measuring degradation of dsDNA substrate); conditions: 150 pM TREX1, 60 nM dsDNA substrate, 25 minutes at room temperature
Description: Degradation of the dsDNA liberates free fluorophore to produce a fluorescent signal. Specifically, 7.5 μL of N-terminally His-Tev tagged full length human TREX1 (expressed in E. coli and purified in house) in reaction buffer (50 mM Tris (pH 7.4), 150 mM NaCl, 2 mM DTT, 0.1 mg/mL BSA, 0.01% (v/v) Tween-20 and 100 mM MgCl2 were added to a 384-well Black ProxiPlate Plus (Perkin Elmer) which already contained compound (150 nL) at varying concentrations as a 10 point dose-response in DMSO. To this was added 7.5 μL of dsDNA substrate (Strand A: 5′ TEX615/GCT AGG CAG 3′; Strand B: 5′ CTG CCT AGC/IAbRQSp (Integrated DNA Technologies)) in reaction buffer. Final concentrations were 150 pM TREX1, 60 nM dsDNA substrate in reaction buffer with 1.0% DMSO (v/v). After 25 minutes at room temperature, reactions were quenched by the addition of 5 μL of stop buffer (same as reaction buffer plus 200 mM EDTA). Final concentrations in the quenched reaction were 112.5 pM TREX1, 45 nM DNA and 50 mM EDTA in a volume of 20 μL. After a 5-minute incubation at room temperature, plates were read in a laser sourced Envision (Perkin-Elmer), measuring fluorescence at 615 nm following excitation w/570 nm light. IC50 values were calculated by comparing the measured fluorescence at 615 nm ratio relative to control wells pre-quenched w/stop buffer (100% inhibition) and no inhibitor (0% inhibition) controls as using non-linear least square four parameter fits and either Genedata or GraphPad Prism (GraphPad Software, Inc.).

Sequence of human TREX2 (residues M44-A279) (Q9BQ50 whole entry, the tested form may be a part): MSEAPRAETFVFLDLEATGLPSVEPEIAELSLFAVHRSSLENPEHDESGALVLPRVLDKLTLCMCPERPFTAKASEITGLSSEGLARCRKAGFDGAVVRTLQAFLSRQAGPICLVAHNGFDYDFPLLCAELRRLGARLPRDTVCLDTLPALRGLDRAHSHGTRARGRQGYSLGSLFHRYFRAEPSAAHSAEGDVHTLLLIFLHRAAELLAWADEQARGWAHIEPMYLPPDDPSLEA
Sequence of full length human TREX1 (Q9NSU2 whole entry): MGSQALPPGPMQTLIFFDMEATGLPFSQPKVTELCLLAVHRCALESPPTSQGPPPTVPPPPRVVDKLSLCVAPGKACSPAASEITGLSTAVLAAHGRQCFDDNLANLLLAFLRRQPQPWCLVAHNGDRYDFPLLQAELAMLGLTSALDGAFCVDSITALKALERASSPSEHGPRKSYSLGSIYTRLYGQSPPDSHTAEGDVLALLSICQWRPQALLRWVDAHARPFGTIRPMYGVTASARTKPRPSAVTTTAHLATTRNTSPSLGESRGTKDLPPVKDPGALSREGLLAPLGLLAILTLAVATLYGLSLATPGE

IC50 [1] [nM]	IC50 [2] [nM]	Structure (SMILES)
1000 to 10000	100 to 1000	Cn1c(-c2cc(Cl)cc(Cl)c2)nc(C(=O)Nc2cnoc2)c(O)c1=O [Example 30, 2-(3,5-dichlorophenyl)-5-hydroxy-N-(isoxazol-4-yl)-1-methyl-6-oxo-1,6-dihydropyrimidine-4-carboxamide]
1000 to 10000	100 to 1000	Cc1cc(-c2nc(C(=O)Nc3cnoc3)c(O)c(=O)n2C)cc(N2CCOCC2)c1 [Example 31, 5-hydroxy-N-(isoxazol-4-yl)-1-methyl-2-(3-methyl-5-morpholinophenyl)-6-oxo-1,6-dihydropyrimidine-4-carboxamide]
1000 to 10000	100 to 1000	Cc1cc(Nc2cnn(C)c2)cc(-c2nc(C(=O)Nc3cnoc3)c(O)c(=O)n2C)c1 [Example 32, 5-hydroxy-N-(isoxazol-4-yl)-1-methyl-2-(3-methyl-5-((1-methyl-1H-pyrazol-4-yl)amino)phenyl)-6-oxo-1,6-dihydropyrimidine-4-carboxamide]
10000 to 100000	100 to 1000	Cc1cc(-c2nc(C(=O)Nc3cnoc3)c(O)c(=O)n2C)cc(N2CCN(C)CC2)c1 [Example 33, 5-hydroxy-N-(isoxazol-4-yl)-1-methyl-2-(3-methyl-5-(4-methylpiperazin-1-yl)phenyl)-6-oxo-1,6-dihydropyrimidine-4-carboxamide]
1000 to 10000	100 to 1000	Cc1cc(Nc2cccc(C)n2)cc(-c2nc(C(=O)Nc3cnoc3)c(O)c(=O)n2C)c1 [Example 34, 5-hydroxy-N-(isoxazol-4-yl)-1-methyl-2-(3-methyl-5-((6-methylpyridin-2-yl)amino)phenyl)-6-oxo-1,6-dihydropyrimidine-4-carboxamide]
1000 to 10000	100 to 1000	Cc1cc(-c2ccn(C)n2)cc(-c2nc(C(=O)Nc3cnoc3)c(O)c(=O)n2C)c1 [Example 35, 5-hydroxy-N-(isoxazol-4-yl)-1-methyl-2-(3-methyl-5-(1-methyl-1H-pyrazol-3-yl)phenyl)-6-oxo-1,6-dihydropyrimidine-4-carboxamide]
10000 to 100000	100 to 1000	Cc1cc(C(=O)N(C)C)cc(-c2nc(C(=O)Nc3cnoc3)c(O)c(=O)n2C)c1 [Example 36, 2-(3-(dimethylcarbamoyl)-5-methylphenyl)-5-hydroxy-N-(isoxazol-4-yl)-1-methyl-6-oxo-1,6-dihydropyrimidine-4-carboxamide]
10000 to 100000	100 to 1000	Cc1cc(C(=O)NCCO)cc(-c2nc(C(=O)Nc3cnoc3)c(O)c(=O)n2C)c1 [Example 38, 5-hydroxy-2-(3-((2-hydroxyethyl)carbamoyl)-5-methylphenyl)-N-(isoxazol-4-yl)-1-methyl-6-oxo-1,6-dihydropyrimidine-4-carboxamide]
10000 to 100000	100 to 1000	Cc1cccc(-c2nc(C(=O)Nc3cnoc3)c(O)c(=O)n2C)c1 [Example 44, 5-hydroxy-N-(isoxazol-4-yl)-1-methyl-6-oxo-2-(m-tolyl)-1,6-dihydropyrimidine-4-carboxamide]

Second part, the compound before the results:

Structure (SMILES)	IC50 [1] [nM]	IC50 [2] [nM]
Cn1c(Cc2ccccn2)nc(C(=O)Nc2cnoc2)c(O)c1=O [Example 26, 5-hydroxy-N-(isoxazol-4-yl)-1-methyl-6-oxo-2-(pyridin-2-ylmethyl)-1,6-dihydropyrimidine-4-carboxamide]	10000 to 100000	1000 to 10000
Cn1c(-c2ccccn2)nc(C(=O)Nc2cnoc2)c(O)c1=O [Example 27, 5-hydroxy-N-(isoxazol-4-yl)-1-methyl-6-oxo-2-(pyridin-2-yl)-1,6-dihydropyrimidine-4-carboxamide]	> 100000	> 10000
Cn1c(N2CCCCC2)nc(C(=O)Nc2cnoc2)c(O)c1=O [Example 28, 5-hydroxy-N-(isoxazol-4-yl)-1-methyl-6-oxo-2-(piperidin-1-yl)-1,6-dihydropyrimidine-4-carboxamide]	10000 to 100000	100 to 1000
Cn1c(-c2cccnc2)nc(C(=O)Nc2cnoc2)c(O)c1=O [Example 29, 5-hydroxy-N-(isoxazol-4-yl)-1-methyl-6-oxo-2-(pyridin-3-yl)-1,6-dihydropyrimidine-4-carboxamide]	10000 to 100000	1000 to 10000
Cc1cc(C(=O)NC2CCOCC2)cc(-c2nc(C(=O)Nc3cnoc3)c(O)c(=O)n2C)c1 [Example 37, 5-hydroxy-N-(isoxazol-4-yl)-1-methyl-2-(3-methyl-5-((tetrahydro-2H-pyran-4-yl)carbamoyl)phenyl)-6-oxo-1,6-dihydropyrimidine-4-carboxamide]	10000 to 100000	100 to 1000
Cn1c(C2CCCN(Cc3ccccc3)C2)nc(C(=O)Nc2cnoc2)c(O)c1=O (stereo not drawn) [Example 39, 2-(1-benzylpiperidin-3-yl)-5-hydroxy-N-(isoxazol-4-yl)-1-methyl-6-oxo-1,6-dihydropyrimidine-4-carboxamide]	10000 to 100000	1000 to 10000
Cn1c(C2CCCN(C(=O)c3ccccn3)C2)nc(C(=O)Nc2cnoc2)c(O)c1=O (stereo not drawn) [Example 40, 5-hydroxy-N-(isoxazol-4-yl)-1-methyl-6-oxo-2-(1-picolinoylpiperidin-3-yl)-1,6-dihydropyrimidine-4-carboxamide]	1000 to 10000	100 to 1000
COc1ccccc1C(=O)N1CCCC(c2nc(C(=O)Nc3cnoc3)c(O)c(=O)n2C)C1 (stereo not drawn) [Example 41, 5-hydroxy-N-(isoxazol-4-yl)-2-(1-(2-methoxybenzoyl)piperidin-3-yl)-1-methyl-6-oxo-1,6-dihydropyrimidine-4-carboxamide]	10000 to 100000	100 to 1000
Cn1c(-c2cnn(Cc3ccccc3)c2)nc(C(=O)Nc2cnoc2)c(O)c1=O [Example 42, 2-(1-benzyl-1H-pyrazol-4-yl)-5-hydroxy-N-(isoxazol-4-yl)-1-methyl-6-oxo-1,6-dihydropyrimidine-4-carboxamide]	10000 to 100000	100 to 1000
Cn1c(C2CCCN(C(=O)CCc3ccccc3)C2)nc(C(=O)Nc2cnoc2)c(O)c1=O (stereo not drawn) [Example 43, 5-hydroxy-N-(isoxazol-4-yl)-1-methyl-6-oxo-2-(1-(3-phenylpropanoyl)piperidin-3-yl)-1,6-dihydropyrimidine-4-carboxamide]	1000 to 10000	< 100
Cn1c(C2CCCN(C(=O)c3cccc(Cl)c3)C2)nc(C(=O)Nc2cnoc2)c(O)c1=O (stereo not drawn) [Example 45, 2-(1-(3-chlorobenzoyl)piperidin-3-yl)-5-hydroxy-N-(isoxazol-4-yl)-1-methyl-6-oxo-1,6-dihydropyrimidine-4-carboxamide]	1000 to 10000	< 100
Cn1c(C2CCCN(C(=O)c3ccccc3Cl)C2)nc(C(=O)Nc2cnoc2)c(O)c1=O (stereo not drawn) [Example 46, 2-(1-(2-chlorobenzoyl)piperidin-3-yl)-5-hydroxy-N-(isoxazol-4-yl)-1-methyl-6-oxo-1,6-dihydropyrimidine-4-carboxamide]	10000 to 100000	100 to 1000
COc1ccc(C(=O)N2CCCC(c3nc(C(=O)Nc4cnoc4)c(O)c(=O)n3C)C2)cc1 (stereo not drawn) [Example 47, 5-hydroxy-N-(isoxazol-4-yl)-2-(1-(4-methoxybenzoyl)piperidin-3-yl)-1-methyl-6-oxo-1,6-dihydropyrimidine-4-carboxamide]	1000 to 10000	100 to 1000
COc1cccc(C(=O)N2CCCC(c3nc(C(=O)Nc4cnoc4)c(O)c(=O)n3C)C2)c1 (stereo not drawn) [Example 48, 5-hydroxy-N-(isoxazol-4-yl)-2-(1-(3-methoxybenzoyl)piperidin-3-yl)-1-methyl-6-oxo-1,6-dihydropyrimidine-4-carboxamide]	1000 to 10000	100 to 1000
CN1CCN(c2nc(C(=O)Nc3cnoc3)c(O)c(=O)n2C)CC1 [Example 49, 5-hydroxy-N-(isoxazol-4-yl)-1-methyl-2-(4-methylpiperazin-1-yl)-6-oxo-1,6-dihydropyrimidine-4-carboxamide]	10000 to 100000	100 to 1000
